Laboratory results as given in publication PMC8584173, “The Cytotoxic Effect of Copper (II) Complexes with Halogenated 1,3-Disubstituted Arylthioureas on Cancer and Bacterial Cells” (International Journal of Molecular Sciences, 2021).

Tests used:
[1] = tested on: PC3 cells; test: Annexin V-FITC/PI flow cytometry, PC3; format: cell-based, human; settings: PC3, IC50 dose, 72 h
Description: The cells were cultured and harvested under the conditions described in the cell culture section. […] The effect of these compounds on the process of early and late apoptosis and necrosis was determined, as described previously, by dual staining with annexin V-FITC and propidium iodide according to manufacturer’s protocol (Becton Dickinson). The cells that were annexin V-FITC positive and PI-negative were identified as early apoptotic and annexin V-FITC and PI-positive as late apoptotic or necrotic.

[2] = tested on: detoxifying and ROS-scavenging enzymes (GST, GR, SOD, PRDX); test: LC–MS proteome analysis, all 12 tested enzymes (text summaries); format: cell-based, human; settings: PC3, IC50 concentration, span over enzymes
Description: (§1) Enzymes involved in oxidoreductive potential were analyzed in the cell lysates obtained after treatment cells with selected conjugates for 24 h. Cells were washed with phosphate-buffered saline (PBS) and harvested, then centrifuged at 1000× g for 10 min. Then, lysis buffer (containing protease inhibitor, 1% RIPA Lysis and Extraction Buffer (ThermoFisher)) and cold PBS were added, and samples were sonicated three times in ice bath. Next, the cell lysates were centrifuged at 14,000× g at 4 °C for 15 min, and then supernatants were stored at […] before use. Protein concentration was measured by the Bradford method.
(§2) Normalized protein concentrations (5 µg) from cell lysate were precipitated by ice cold (–20 °C) acetonitrile (ACN, Merck, in ratio 1:4). Then, samples were centrifuged (–9 °C, 30 min., 18,000× g), the supernatant was discarded and ACN excess was evaporated using a vacuum centrifuge (5 min., room temp.). Protein pellet was dissolved in 40 mM ammonium bicarbonate. An amount of 500 mM dithiothreitol (DTT, with final concentration 20 mM) and 1 M iodoacetamide (IAA, with final concentration 40 mM) were used for reduction and alkylation processes. After 16 h of incubation in 37 °C with Trypsin Gold (Promega), digested protein samples were diluted with 0.1% formic acid (ThermoFisher) and centrifuged (+2 °C, 30 min, 18,000× g).
LC–MS analysis was carried out with the use of nanoUHPLC (nanoElute, Bruker) coupled by CaptiveSpray (Bruker) to ESI-Q-TOF mass spectrometer (Compact, Bruker). […]
(§3) Sample ionizations were performed at a gas flow of 3.0 L/min, temperature of 150 °C and voltage of the capillary at 1600 V. The quadrupole energy was fixed to 5.0 eV and collision chamber energy 7.0 eV, with an ion transfer time of 90 µs. The ions were analyzed in the positive polarity mode in the range 150–2200 m/z, with the acquisition frequency of the 1 Hz spectrum, as well as with the autoMS/MS system.
The collected spectra were analyzed and calibrated using DataAnalysis software (Bruker) and then identified in ProteinScape (Bruker) by the MASCOT server. […]

[3] = tested on: Thioredoxin-dependent peroxide reductase, mitochondrial (PRDX3_HUMAN); test: LC–MS proteome analysis, PRDX3; format: cell-based, Homo sapiens; settings: IC50 concentration, % of control
Description: as §1, §2
(§4) LC–MS analysis was carried out with the use of nanoUHPLC (nanoElute, Bruker) coupled by CaptiveSpray (Bruker) to ESI-Q-TOF mass spectrometer (Compact, Bruker). Two-column separation method was used, i.e., pre-column (300 µm × 5 mm, C18 PepMap 100, 5 µm, 100Å, Thermo Scientific) and Aurora separation column with CSI fitting (75 µm × 250 mm, C18 1.6 µm) in gradient 2% B to 35% B in 90 min with the 300 nL/min flow rate. Mobile phases (A) 0.1% formic acid in water and (B) 0.1% formic acid in ACN were used.
as §3
(§5) The collected spectra were analyzed and calibrated using DataAnalysis software (Bruker) and then identified in ProteinScape (Bruker) by the MASCOT server. Protein identification was conducted using the online SwissProt and NCBIprot databases, and their references and biological significance were identified using Reactome.org, String.org and KEGG.

[4] = tested on: Peroxiredoxin-4 (PRDX4_HUMAN); test: LC–MS proteome analysis, PRDX4; format: cell-based, Homo sapiens; settings: IC50 concentration, % of control
Description: as §1, §2, §4, §3, §5

[5] = tested on: Candida species; test: MIC, Candida species; format: cell-based; settings: studied Candida species
Description: (§6) The antimicrobial activity of the compounds was tested on Gram-positive bacteria (Staphylococcus aureus NCTC 4163, Staphylococcus aureus ATCC 25923, Staphylococcus aureus ATCC 6538, Staphylococcus aureus ATCC 29213, Staphylococcus epidermidis ATCC 12228, Staphylococcus epidermidis ATCC 35984), Gram-negative rods (Escherichia coli ATCC 10538, Escherichia coli ATCC 25922, Pseudomonas aeruginosa ATCC 15442, Pseudomonas aeruginosa ATCC 27863) and yeasts (Candida albicans ATCC 10231, Candida albicans ATCC 90028, Candida parapsilosis ATCC 22019). Hospital methicillin-resistant strains of Staphylococcus aureus and Staphylococcus epidermidis were obtained from the collection of the Department of Pharmaceutical Microbiology, Medical University of Warsaw, Poland.
(§7) Antifungal activities were assessed using Mueller–Hinton agar + 2% glucose and 0.5 µg/mL methylene blue dye medium. Sterile filter paper discs (9 mm diameter, Whatman Number 3 chromatography paper) were dripped with tested compound solutions (in dimethylsulfoxide, DMSO) to load 400 μg of a given compound per disc. Dry discs were placed on the surface of appropriate agar medium. The results (diameter of the growth inhibition zone) were read after 18 h of incubation at 35 °C. Minimal inhibitory concentration (MIC) was tested by the twofold serial microdilution method (in 96-well microtiter plates) using Mueller–Hinton broth medium (Beckton Dickinson) for bacteria or RPMI-1640 medium for Candida species, according to CLSI guidelines. The stock solution of tested agent was prepared in DMSO and diluted in sterile water. […] The final inoculum of all studied microorganisms was 10^5 CFU/ mL^−1 (colony forming units per ml). Minimal inhibitory concentrations (the lowest concentration of a tested agent that prevents visible growth of a microorganism) were read after 18 h (bacteria) or 24 h (yeasts) of incubation at 35 °C.

[6] = tested on: Peroxiredoxin-2 (PRDX2_HUMAN); test: LC–MS proteome analysis, PRDX2; format: cell-based, Homo sapiens; settings: IC50 concentration, % of control
Description: as §1, §2, §4, §3, §5

[7] = tested on: Peroxiredoxin-1 (PRDX1_HUMAN); test: LC–MS proteome analysis, PRDX1; format: cell-based, Homo sapiens; settings: IC50 concentration, % of control
Description: as §1, §2, §4, §3, §5

[8] = tested on: interleukin-6 (IL-6); test: IL-6 level assay (ELISA); format: cell-based, human; settings: 72 h
Description: IL-6 concentration at all studied cancer cells and normal HaCaT cell lines was measured by ELISA kit (Diaclon SAS Besancon Cedex, France). […] IL-6 in cell culture supernatant was measured using enzyme-linked immunosorbent assay in accordance with the manufacturer’s protocol.

[9] = tested on: standard staphylococci; test: MIC, standard staphylococci; format: cell-based, Staphylococcus; settings: standard staphylococci / S. aureus isolates
Description: as §6, §7

Row | SMILES | early apoptosis, % of cells [1] | reduction of intensity of the 12 tested enzymes [2] | Protein Intensity, % (PRDX3) ([3]; PC3, 24 h) | Protein Intensity, % (PRDX3) ([3]; SW480, 24 h) | Protein Intensity, % (PRDX3) ([3]; SW620, 24 h) | Protein Intensity, % (PRDX4) ([4]; PC3, 24 h) | Protein Intensity, % (PRDX4) ([4]; SW480, 24 h) | Protein Intensity, % (PRDX4) ([4]; SW620, 24 h) | growth inhibitory dose [5] | Protein Intensity, % (PRDX2) ([6]; PC3, 24 h) | Protein Intensity, % (PRDX2) ([6]; SW480, 24 h) | Protein Intensity, % (PRDX2) ([6]; SW620, 24 h) | Protein Intensity, % (PRDX1) ([7]; PC3, 24 h) | Protein Intensity, % (PRDX1) ([7]; SW480, 24 h) | Protein Intensity, % (PRDX1) ([7]; SW620, 24 h) | decrease of IL-6 level ([8]; SW480, IC50 dose, vs control) | MIC [9] | reduction of IL-6 secretion, times ([8]; PC3, IC50 dose) | reduction of IL-6 level, times ([8]; SW480, IC50 dose, vs control)
1 | O=[N+]([O-])c1cc([N+]2=C(Nc3ccc(Br)cc3)[S][Cu-2]23[S]C(Nc2ccc(Br)cc2)=[N+]3c2ccc(Cl)c([N+](=O)[O-])c2)ccc1Cl [Compound 3, Copper (II) complex with 1-(4-bromophenyl)-3-(4-chloro-3-nitrophenyl)thiourea] | 45.5% ± 3.5% | 29.4–69.1% | 57.3% | 85.4% | 67.5% | 61.1% | 60.1% | 76.4% | 64 µg/mL | 47.3% | 93.7% | 71.6% | 47.8% | 88.5% | 89.0% | ≤ 30% | – | – | –
2 | O=[N+]([O-])c1cc([N+]2=C(Nc3ccc(I)cc3)[S][Cu-2]23[S]C(Nc2ccc(I)cc2)=[N+]3c2ccc(Cl)c([N+](=O)[O-])c2)ccc1Cl [Compound 8, Copper (II) complex with 1-(4-iodophenyl)-3-(4-chloro-3-nitrophenyl)thiourea] | 45.7% ± 3.3% | 31.5–75.2% | 24.8% | 96.3% | 95.2% | 30.8% | 78.2% | 93.9% | 64 µg/mL | 39.9% | 78.3% | 88.6% | 52.3% | 84.4% | 93.5% | – | 4 µg/mL | almost twofold | twofold
